“And” between values parts separate entries of the source, which are not always exact repeats. Identical values can stand only once. Inconclusive results and toxic doses are left out.
Test system: L1210 leukemia ip in BDF1 mice, survival T/C
Experiment: NCI In Vivo Anticancer Drug Screen. Data for tumor model L1210 Leukemia (intraperitoneal) in B6D2F1 (BDF1) mice
Conditions: endpoint: mean survival time, higher = longer survival
Summary of the method: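 Tumor was transplanted into mice, which were then dosed with test compound or vehicle alone. Survival was recorded for each group, and the treated figure was expressed relative to the control figure.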

[1] = dose: 100.0 mg/kg/injection, schedule: Q04DX003 (ip), vehicle: Klucel (hydroxypropylcellulose) (HPC)
[2] = dose: 200.0 mg/kg/injection, schedule: Q04DX003 (ip), vehicle: Klucel (hydroxypropylcellulose) (HPC)
[3] = dose: 400.0 mg/kg/injection, schedule: Q04DX003 (ip), vehicle: Klucel (hydroxypropylcellulose) (HPC)
[4] = dose: 100.0 mg/kg/injection, schedule: Q04DX003 (ip), vehicle: saline with Tween-80
[5] = dose: 200.0 mg/kg/injection, schedule: Q04DX003 (ip), vehicle: saline with Tween-80
[6] = dose: 400.0 mg/kg/injection, schedule: Q04DX003 (ip), vehicle: saline with Tween-80
[7] = dose: 12.5 mg/kg/injection, schedule: Q01DX009 (ip), vehicle: saline
[8] = dose: 25.0 mg/kg/injection, schedule: Q01DX009 (ip), vehicle: saline
[9] = dose: 100.0 mg/kg/injection, schedule: Q01DX001 (ip), vehicle: saline with Tween-80
[10] = dose: 200.0 mg/kg/injection, schedule: Q01DX001 (ip), vehicle: saline with Tween-80
[11] = dose: 400.0 mg/kg/injection, schedule: Q01DX001 (ip), vehicle: saline with Tween-80
[12] = dose: 100.0 mg/kg/injection, schedule: Q01DX009 (ip), vehicle: saline with Tween-80
[13] = dose: 200.0 mg/kg/injection, schedule: Q01DX009 (ip), vehicle: saline with Tween-80
[14] = dose: 100.0 mg/kg/injection, schedule: Q01DX001 (ip), vehicle: Klucel (hydroxypropylcellulose) (HPC)
[15] = dose: 200.0 mg/kg/injection, schedule: Q01DX001 (ip), vehicle: Klucel (hydroxypropylcellulose) (HPC)
[16] = dose: 400.0 mg/kg/injection, schedule: Q01DX001 (ip), vehicle: Klucel (hydroxypropylcellulose) (HPC)
[17] = dose: 100.0 mg/kg/injection, schedule: Q01DX009 (ip), vehicle: saline
[18] = dose: 200.0 mg/kg/injection, schedule: Q01DX009 (ip), vehicle: saline
[19] = dose: 50.0 mg/kg/injection, schedule: Q01DX009 (ip), vehicle: saline

SMILES: S=C(Nc1ccc(Cl)cc1)Nc1ccc(Cl)cc1
- T/C [1]: 108 % of control
- T/C [2]: 103 % of control
- T/C [3]: 97 % of control

SMILES: [CH3][Sb]([CH3])([CH3])([O]C(=O)C(Cl)Cl)[O]C(=O)C(Cl)Cl
- T/C [4]: 105 % of control
- T/C [5]: 108 % of control
- T/C [6]: 103 % of control

SMILES: CCCCOC(=O)c1[nH]cnc1/N=N/N(C)CCCC
- T/C (dose: 100.0 mg/kg/injection, schedule: Q01DX001 (ip), vehicle: other): 112 % of control
- T/C (dose: 200.0 mg/kg/injection, schedule: Q01DX001 (ip), vehicle: other): 120 % of control

SMILES: Clc1cc(Cl)c2c(c1)Cc1cc(Cl)cc(N=Cc3ccc4c(c3)OCO4)c1-2
- T/C (dose: 100.0 mg/kg/injection, schedule: Q01DX009 (ip), vehicle: Klucel (hydroxypropylcellulose) (HPC)): 97 % of control
- T/C [1]: 97 % of control
- T/C (dose: 200.0 mg/kg/injection, schedule: Q01DX009 (ip), vehicle: Klucel (hydroxypropylcellulose) (HPC)): 99 % of control
- T/C [2]: 97 % of control
- T/C [3]: 104 % of control

SMILES: COc1cc(C)c(C(=O)Oc2cc(C)c(C(=O)O)c(O)c2C)c(OC)c1C
- T/C (dose: 6.25 mg/kg/injection, schedule: Q01DX009 (ip), vehicle: saline): 95 % of control
- T/C [7]: 98 % of control
- T/C [8]: 97 % of control and 98 % of control
- T/C (dose: 37.5 mg/kg/injection, schedule: Q01DX Z (ip), vehicle: saline): 93 % of control
- T/C (dose: 75.0 mg/kg/injection, schedule: Q01DX Z (ip), vehicle: saline): 98 % of control
- T/C (dose: 100.0 mg/kg/injection, schedule: Q01DX Z (ip), vehicle: saline): 96 % of control
- T/C (dose: 150.0 mg/kg/injection, schedule: Q01DX Z (ip), vehicle: saline): 93 % of control
- T/C (dose: 300.0 mg/kg/injection, schedule: Q01DX Z (ip), vehicle: saline): 98 % of control

SMILES: O=C(O)c1cccc(CCc2cccnc2)c1
- T/C [9]: 98 % of control
- T/C [10]: 101 % of control
- T/C [11]: 93 % of control

SMILES: COc1ccc(NC2=NCCS2)cc1
- T/C (dose: 50.0 mg/kg/injection, schedule: Q01DX009 (ip), vehicle: saline with Tween-80): 95 % of control
- T/C [12]: 95 % of control
- T/C [13]: 96 % of control

SMILES: CCCCCCCCCCCCCCCCC/C(CC)=N/Nc1ccc([N+](=O)[O-])cc1[N+](=O)[O-]
- T/C [14]: 104 % of control
- T/C [15]: 106 % of control
- T/C [16]: 97 % of control

SMILES: CC(C)(CO)NC(=O)COc1ccc(Cl)cc1Cl
- T/C (dose: 100.0 mg/kg/injection, schedule: Q04DX002 (ip), vehicle: saline with Tween-80): 102 % of control
- T/C (dose: 200.0 mg/kg/injection, schedule: Q04DX002 (ip), vehicle: saline with Tween-80): 94 % of control
- T/C (dose: 400.0 mg/kg/injection, schedule: Q04DX002 (ip), vehicle: saline with Tween-80): 94 % of control

SMILES: CC(C)(CBr)C(=O)Cl
- T/C (dose: 100.0 mg/kg/injection, schedule: Q01DX001 (ip), vehicle: saline): 101 % of control
- T/C (dose: 200.0 mg/kg/injection, schedule: Q01DX001 (ip), vehicle: saline): 106 % of control
- T/C (dose: 400.0 mg/kg/injection, schedule: Q01DX001 (ip), vehicle: saline): 101 % of control

SMILES: Cc1c2ccncc2c(C)c2c1[nH]c1ccc(O)cc12
- T/C (dose: 3.1 mg/kg/injection, schedule: Q01DX009 (ip), vehicle: saline with Tween-80): 158 % of control
- T/C (dose: 6.25 mg/kg/injection, schedule: Q01DX009 (ip), vehicle: saline with Tween-80): 100 % of control
- T/C (dose: 6.3 mg/kg/injection, schedule: Q04DX003 (ip), vehicle: saline with Tween-80): 122 % of control
- T/C (dose: 12.5 mg/kg/injection, schedule: Q01DX001 (oral), vehicle: saline with Tween-80): 104 % of control
- T/C (dose: 12.5 mg/kg/injection, schedule: Q01DX009 (ip), vehicle: saline with Tween-80): 98 % of control
- T/C (dose: 25.0 mg/kg/injection, schedule: Q01DX001 (oral), vehicle: saline with Tween-80): 106 % of control
- T/C (dose: 50.0 mg/kg/injection, schedule: Q01DX001 (oral), vehicle: saline with Tween-80): 104 % of control
- T/C (dose: 50.0 mg/kg/injection, schedule: Q04DX003 (ip), vehicle: saline with Tween-80): 98 % of control
- T/C (dose: 100.0 mg/kg/injection, schedule: Q01DX001 (oral), vehicle: saline with Tween-80): 114 % of control
- T/C (dose: 200.0 mg/kg/injection, schedule: Q01DX001 (oral), vehicle: saline with Tween-80): 112 % of control

SMILES: CNc1cccc(C(=O)O)c1
- T/C [14]: 91 % of control
- T/C [1]: 113 % of control
- T/C [15]: 102 % of control
- T/C [2]: 107 % of control
- T/C [16]: 98 % of control
- T/C [3]: 97 % of control

SMILES: Cn1c(=O)cc[nH]c1=O
- T/C [9]: 95 % of control
- T/C [10]: 98 % of control
- T/C [11]: 106 % of control

SMILES: CCOC(=O)c1cnc(C)nc1Nc1c(C)cccc1C
- T/C [14]: 99 % of control
- T/C [15]: 105 % of control
- T/C [16]: 100 % of control

SMILES: CC(=O)[O][Pb]([CH3])([CH3])[CH3]
- T/C (dose: 5.0 mg/kg/injection, schedule: Q01DX001 (ip), vehicle: carboxymethylcellulose (CMC)): 110 % of control
- T/C (dose: 10.0 mg/kg/injection, schedule: Q01DX001 (ip), vehicle: carboxymethylcellulose (CMC)): 103 % of control

SMILES: CC(=O)CC(=O)OCc1ccccc1
- T/C [17]: 93 % of control
- T/C [18]: 92 % of control
- T/C (dose: 400.0 mg/kg/injection, schedule: Q01DX009 (ip), vehicle: saline): 95 % of control

SMILES: C(=C/[PH+](c1ccccc1)c1ccccc1)/[PH+](c1ccccc1)c1ccccc1.C(=C/[PH+](c1ccccc1)c1ccccc1)/[PH+](c1ccccc1)c1ccccc1.[O-][Cl+3]([O-])([O-])O.[Rh]
- T/C [9]: 92 % of control
- T/C [11]: 89 % of control

SMILES: Cc1ccc(C(=O)O)cc1
- T/C [12]: 90 % of control
- T/C [13]: 88 % of control

SMILES: OCCCC1CCCCC1
- T/C [19]: 97 % of control
- T/C [17]: 175 % of control
- T/C [18]: 103 % of control

SMILES: C/C(=N/O)c1ccc(/C(C)=N/O)cc1
- T/C (dose: 75.0 mg/kg/injection, schedule: Q01DX009 (ip), vehicle: saline with Tween-80): 104 % of control
- T/C [4]: 95 % of control
- T/C (dose: 150.0 mg/kg/injection, schedule: Q01DX009 (ip), vehicle: saline with Tween-80): 107 % of control
- T/C [13]: 107 % of control
- T/C [5]: 96 % of control
- T/C [6]: 95 % of control

SMILES: Cc1ccnc(NC(=O)CCc2ccccc2)c1
- T/C (dose: 100.0 mg/kg/injection, schedule: Q04DX002 (ip), vehicle: Klucel (hydroxypropylcellulose) (HPC)): 95 % of control
- T/C (dose: 200.0 mg/kg/injection, schedule: Q04DX002 (ip), vehicle: Klucel (hydroxypropylcellulose) (HPC)): 100 % of control
- T/C (dose: 400.0 mg/kg/injection, schedule: Q04DX002 (ip), vehicle: Klucel (hydroxypropylcellulose) (HPC)): 92 % of control

SMILES: CCCCCCCCCCCCCCCC(=O)SCCSC(=O)CCCCCCCCCCCCCCC
- T/C (dose: 87.5 mg/kg/injection, schedule: Q04DX003 (ip), vehicle: other): 93 % of control
- T/C (dose: 175.0 mg/kg/injection, schedule: Q04DX003 (ip), vehicle: other): 93 % of control

SMILES: Cc1cn(C2CCCO2)c(=O)nc1NO (centres undefined)
- T/C (dose: 100.0 mg/kg/injection, schedule: Q01DX001 (ip), vehicle: carboxymethylcellulose (CMC)): 104 % of control
- T/C (dose: 200.0 mg/kg/injection, schedule: Q01DX001 (ip), vehicle: carboxymethylcellulose (CMC)): 95 % of control
- T/C (dose: 400.0 mg/kg/injection, schedule: Q01DX001 (ip), vehicle: carboxymethylcellulose (CMC)): 98 % of control

SMILES: Cc1cccc(-n2c(N)cc(=O)[nH]c2=S)n1
- T/C [7]: 97 % of control
- T/C (dose: 12.5 mg/kg/injection, schedule: Q04DX003 (ip), vehicle: saline): 96 % of control
- T/C [8]: 96 % of control
- T/C (dose: 25.0 mg/kg/injection, schedule: Q04DX003 (ip), vehicle: saline): 96 % of control
- T/C [19]: 94 % of control and 105 % of control
- T/C (dose: 50.0 mg/kg/injection, schedule: Q04DX003 (ip), vehicle: saline): 91 % of control
- T/C [17]: 87 % of control

SMILES: COC(=O)C1CCC=C2C1CC1CC2C1(C)C (centres undefined)
- T/C [1]: 97 % of control
- T/C [2]: 103 % of control
- T/C [3]: 95 % of control

Source: PubChem BioAssay AID248 (DTP/NCI, 2004)
